In ChEMBL document CHEMBL5465560, “Selectivity Literature for EUbOPEN Chemogenomic Library” (2024):
Values belong to the compound of their own block, whether it stands above or below them.

Columns and labels:
Focal adhesion kinase 1 = Focal adhesion kinase 1 (Homo sapiens, UniProt Q05397); test: Selectivity interaction (KinaseProfiler screening (Millipore)) EUB0000601a PTK2; conditions: at 3 µM
[1] = target: Mitogen-activated protein kinase kinase kinase 14 (Homo sapiens) (UniProt Q99558); test: Selectivity interaction (Kinase panel (Invitrogen)) EUB0000639a MAP3K14; conditions: at 200 nM
Sequence of Mitogen-activated protein kinase kinase kinase 14 (Homo sapiens) (Q99558 whole entry, looked up): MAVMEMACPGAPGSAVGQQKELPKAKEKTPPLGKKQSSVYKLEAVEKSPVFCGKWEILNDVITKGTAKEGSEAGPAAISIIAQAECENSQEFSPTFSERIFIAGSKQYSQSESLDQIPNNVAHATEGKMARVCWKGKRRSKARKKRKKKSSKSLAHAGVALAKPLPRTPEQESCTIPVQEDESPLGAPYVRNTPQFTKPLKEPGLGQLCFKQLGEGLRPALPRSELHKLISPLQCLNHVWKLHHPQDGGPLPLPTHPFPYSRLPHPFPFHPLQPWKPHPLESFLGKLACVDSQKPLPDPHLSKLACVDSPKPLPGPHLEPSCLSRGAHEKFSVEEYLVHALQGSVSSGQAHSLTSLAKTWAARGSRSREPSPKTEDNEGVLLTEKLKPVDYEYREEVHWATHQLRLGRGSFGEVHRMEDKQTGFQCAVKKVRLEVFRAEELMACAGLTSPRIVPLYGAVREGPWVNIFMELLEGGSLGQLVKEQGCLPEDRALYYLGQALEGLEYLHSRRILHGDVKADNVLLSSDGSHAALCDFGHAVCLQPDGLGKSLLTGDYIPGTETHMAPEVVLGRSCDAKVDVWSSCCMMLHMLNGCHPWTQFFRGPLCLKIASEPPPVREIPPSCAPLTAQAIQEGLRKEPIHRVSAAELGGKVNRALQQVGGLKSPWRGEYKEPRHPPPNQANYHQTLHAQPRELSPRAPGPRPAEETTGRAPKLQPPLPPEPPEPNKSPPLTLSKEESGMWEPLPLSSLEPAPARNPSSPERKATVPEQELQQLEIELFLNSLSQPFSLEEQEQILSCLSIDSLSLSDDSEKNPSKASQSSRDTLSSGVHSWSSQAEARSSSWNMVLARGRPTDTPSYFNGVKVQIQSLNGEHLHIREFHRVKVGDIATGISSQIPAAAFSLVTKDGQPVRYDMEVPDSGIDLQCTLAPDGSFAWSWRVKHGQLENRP

[2] = target: Serine/threonine-protein kinase pim-1 (Homo sapiens, UniProt P11309); test: Selectivity interaction (Kinase panel (Invitrogen)) EUB0000639a PIM1; conditions: at 200 nM
Sequence of Serine/threonine-protein kinase pim-1 (P11309 whole entry, looked up): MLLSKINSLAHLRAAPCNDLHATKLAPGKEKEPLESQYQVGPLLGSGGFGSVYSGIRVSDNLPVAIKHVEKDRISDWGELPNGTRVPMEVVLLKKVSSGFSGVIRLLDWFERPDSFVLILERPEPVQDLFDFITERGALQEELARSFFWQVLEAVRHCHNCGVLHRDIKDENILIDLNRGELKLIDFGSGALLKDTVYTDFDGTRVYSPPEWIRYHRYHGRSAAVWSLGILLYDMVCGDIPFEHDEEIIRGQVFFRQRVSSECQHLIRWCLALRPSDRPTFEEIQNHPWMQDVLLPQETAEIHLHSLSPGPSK

[3] = target: Serine/threonine-protein kinase 25 (Homo sapiens) (UniProt O00506); test: Selectivity interaction (ActivX KiNativ screen (kinase selectivity in THP-1 cell lysates)) EUB0000639a STK25; format: subcellular; conditions: lysate
Sequence of Serine/threonine-protein kinase 25 (Homo sapiens) (O00506 whole entry, looked up): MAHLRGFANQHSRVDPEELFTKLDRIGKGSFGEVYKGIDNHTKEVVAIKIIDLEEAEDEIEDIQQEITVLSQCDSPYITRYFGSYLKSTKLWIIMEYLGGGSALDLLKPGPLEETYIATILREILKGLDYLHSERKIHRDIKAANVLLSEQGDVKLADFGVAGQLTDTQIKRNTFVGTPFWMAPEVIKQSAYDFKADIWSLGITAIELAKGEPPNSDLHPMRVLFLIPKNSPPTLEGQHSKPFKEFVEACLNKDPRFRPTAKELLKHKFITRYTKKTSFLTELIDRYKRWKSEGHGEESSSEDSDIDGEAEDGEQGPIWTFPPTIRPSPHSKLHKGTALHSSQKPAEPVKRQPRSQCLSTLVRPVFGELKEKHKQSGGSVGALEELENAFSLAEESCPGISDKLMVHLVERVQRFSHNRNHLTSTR

Melanocortin receptor 3 = Melanocortin receptor 3 (Homo sapiens, UniProt P41968); test: Selectivity interaction (Melanocortin MC3 receptor binding assay, human recombinant ) EUB0000877a MC3R
Sequence of Melanocortin receptor 3 (P41968 whole entry): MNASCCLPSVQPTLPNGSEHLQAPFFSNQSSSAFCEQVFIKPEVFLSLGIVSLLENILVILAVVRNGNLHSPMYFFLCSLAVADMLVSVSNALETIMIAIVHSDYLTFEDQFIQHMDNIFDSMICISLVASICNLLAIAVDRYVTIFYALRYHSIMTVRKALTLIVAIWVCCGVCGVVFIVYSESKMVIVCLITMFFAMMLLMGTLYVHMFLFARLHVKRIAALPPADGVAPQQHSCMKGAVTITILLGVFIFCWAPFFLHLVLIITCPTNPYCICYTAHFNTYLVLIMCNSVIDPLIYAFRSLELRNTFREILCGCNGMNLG

[4] = target: Calcium/calmodulin-dependent protein kinase type II subunit gamma (Homo sapiens) (UniProt Q13555); test: Selectivity interaction (LanthaScreen Eu Kinase Binding Assay) EUB0001632a CAMK2G; conditions: at 10 µM
[5] = target: Cyclin-dependent kinase 5 (Homo sapiens, UniProt Q00535); test: Selectivity interaction (LanthaScreen Eu Kinase Binding Assay) EUB0001632a CDK5; conditions: at 10 µM
Sequence of Cyclin-dependent kinase 5 (Q00535 whole entry, looked up): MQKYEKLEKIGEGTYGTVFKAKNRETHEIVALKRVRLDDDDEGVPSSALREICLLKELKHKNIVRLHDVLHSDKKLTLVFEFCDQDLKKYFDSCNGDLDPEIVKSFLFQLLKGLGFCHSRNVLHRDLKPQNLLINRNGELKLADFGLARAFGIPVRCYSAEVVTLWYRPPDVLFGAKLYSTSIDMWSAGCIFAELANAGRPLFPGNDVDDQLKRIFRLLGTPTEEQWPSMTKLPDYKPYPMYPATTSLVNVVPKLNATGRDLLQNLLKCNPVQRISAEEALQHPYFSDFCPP

[6] = target: T1, Hormonally up-regulated neu tumor-associated kinase (Homo sapiens) (UniProt P57058); test: Selectivity interaction (LanthaScreen Eu Kinase Binding Assay) EUB0001632a HUNK; conditions: at 10 µM
T1 sequence (whole entry): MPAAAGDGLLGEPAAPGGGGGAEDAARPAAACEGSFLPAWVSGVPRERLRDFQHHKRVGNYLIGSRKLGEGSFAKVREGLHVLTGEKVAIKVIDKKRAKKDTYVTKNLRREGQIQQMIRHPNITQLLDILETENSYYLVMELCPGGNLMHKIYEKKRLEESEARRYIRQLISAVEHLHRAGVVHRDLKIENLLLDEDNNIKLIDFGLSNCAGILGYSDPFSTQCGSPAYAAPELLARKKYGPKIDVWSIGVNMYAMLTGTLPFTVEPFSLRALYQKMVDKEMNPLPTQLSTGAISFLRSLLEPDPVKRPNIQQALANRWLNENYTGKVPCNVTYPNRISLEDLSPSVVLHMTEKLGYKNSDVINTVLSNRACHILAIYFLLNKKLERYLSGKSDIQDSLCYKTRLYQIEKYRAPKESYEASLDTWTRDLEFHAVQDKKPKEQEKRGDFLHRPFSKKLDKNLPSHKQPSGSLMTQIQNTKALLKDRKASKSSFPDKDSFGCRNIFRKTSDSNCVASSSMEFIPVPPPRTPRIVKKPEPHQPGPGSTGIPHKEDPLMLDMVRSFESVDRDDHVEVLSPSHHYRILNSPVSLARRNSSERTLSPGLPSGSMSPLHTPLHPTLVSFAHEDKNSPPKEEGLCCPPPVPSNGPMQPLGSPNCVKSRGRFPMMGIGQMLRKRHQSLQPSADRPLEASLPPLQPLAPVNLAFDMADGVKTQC

[7] = target: Vascular endothelial growth factor receptor 1 (Homo sapiens) (UniProt P17948); test: Selectivity interaction (KinomeScan (DiscoverX)) EUB0000699a FLT1; conditions: at 10 µM
Sequence of Vascular endothelial growth factor receptor 1 (Homo sapiens) (P17948 whole entry): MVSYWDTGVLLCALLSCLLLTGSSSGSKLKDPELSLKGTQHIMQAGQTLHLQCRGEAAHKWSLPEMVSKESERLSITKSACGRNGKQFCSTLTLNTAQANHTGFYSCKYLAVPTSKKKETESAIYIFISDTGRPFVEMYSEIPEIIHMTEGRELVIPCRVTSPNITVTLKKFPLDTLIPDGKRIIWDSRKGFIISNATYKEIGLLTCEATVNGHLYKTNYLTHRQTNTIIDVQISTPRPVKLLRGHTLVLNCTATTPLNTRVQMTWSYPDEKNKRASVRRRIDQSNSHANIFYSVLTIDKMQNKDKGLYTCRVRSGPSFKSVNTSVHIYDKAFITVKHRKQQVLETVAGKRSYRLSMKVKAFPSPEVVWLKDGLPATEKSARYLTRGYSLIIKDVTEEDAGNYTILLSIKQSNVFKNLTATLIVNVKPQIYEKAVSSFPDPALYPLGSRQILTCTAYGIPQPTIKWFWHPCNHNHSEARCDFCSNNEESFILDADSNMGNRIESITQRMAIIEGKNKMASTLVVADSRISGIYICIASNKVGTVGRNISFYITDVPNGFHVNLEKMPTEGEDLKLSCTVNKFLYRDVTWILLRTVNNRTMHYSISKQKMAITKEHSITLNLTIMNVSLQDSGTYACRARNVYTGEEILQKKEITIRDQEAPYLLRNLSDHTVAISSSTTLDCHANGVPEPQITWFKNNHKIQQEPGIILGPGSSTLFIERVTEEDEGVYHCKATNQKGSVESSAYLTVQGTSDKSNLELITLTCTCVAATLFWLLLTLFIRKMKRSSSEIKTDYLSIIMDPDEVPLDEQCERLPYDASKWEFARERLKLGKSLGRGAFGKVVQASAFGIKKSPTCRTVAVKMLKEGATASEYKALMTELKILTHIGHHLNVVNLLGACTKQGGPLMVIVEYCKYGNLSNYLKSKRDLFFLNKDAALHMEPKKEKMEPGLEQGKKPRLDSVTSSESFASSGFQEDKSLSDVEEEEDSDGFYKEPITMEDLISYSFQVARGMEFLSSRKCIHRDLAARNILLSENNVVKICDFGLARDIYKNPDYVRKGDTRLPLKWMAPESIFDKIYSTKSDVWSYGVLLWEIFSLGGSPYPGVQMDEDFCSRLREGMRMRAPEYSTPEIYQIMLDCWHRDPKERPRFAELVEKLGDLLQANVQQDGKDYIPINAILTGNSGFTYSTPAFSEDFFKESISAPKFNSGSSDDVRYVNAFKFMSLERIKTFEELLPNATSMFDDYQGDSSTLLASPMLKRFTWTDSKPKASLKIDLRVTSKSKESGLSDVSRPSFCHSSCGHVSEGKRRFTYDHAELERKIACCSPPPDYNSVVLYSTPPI

[8] = target: Insulin receptor-related protein (Homo sapiens) (UniProt P14616); test: Selectivity interaction (KinomeScan (DiscoverX)) EUB0000595a INSRR; conditions: at 10 µM
[9] = target: Wee1-like protein kinase 2 (Homo sapiens) (UniProt P0C1S8); test: Selectivity interaction (KinomeScan (DiscoverX)) EUB0000229b WEE2; conditions: at 10 µM
[10] = target: T2, Dual specificity mitogen-activated protein kinase kinase 7 (Homo sapiens) (UniProt O14733); test: Selectivity interaction (KinomeScan (DiscoverX)) EUB0001079a MAP2K7; conditions: at 1 µM
T2 sequence (whole entry): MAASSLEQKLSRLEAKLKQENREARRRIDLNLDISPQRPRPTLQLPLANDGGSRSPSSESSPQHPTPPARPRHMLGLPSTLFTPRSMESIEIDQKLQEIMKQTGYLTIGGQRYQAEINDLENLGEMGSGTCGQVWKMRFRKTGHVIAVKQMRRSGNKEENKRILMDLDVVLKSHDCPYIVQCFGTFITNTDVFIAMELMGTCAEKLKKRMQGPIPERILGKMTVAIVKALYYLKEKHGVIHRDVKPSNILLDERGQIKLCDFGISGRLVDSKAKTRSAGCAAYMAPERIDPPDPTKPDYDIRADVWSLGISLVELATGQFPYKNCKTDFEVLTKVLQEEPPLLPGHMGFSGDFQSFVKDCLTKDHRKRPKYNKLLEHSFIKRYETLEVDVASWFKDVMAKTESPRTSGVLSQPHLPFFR

[11] = target: T3, Serine/threonine-protein kinase Sgk1 (Homo sapiens) (UniProt O00141); test: Selectivity interaction (KinomeScan (DiscoverX)) EUB0001079a SGK1; conditions: at 1 µM
T3 sequence (whole entry): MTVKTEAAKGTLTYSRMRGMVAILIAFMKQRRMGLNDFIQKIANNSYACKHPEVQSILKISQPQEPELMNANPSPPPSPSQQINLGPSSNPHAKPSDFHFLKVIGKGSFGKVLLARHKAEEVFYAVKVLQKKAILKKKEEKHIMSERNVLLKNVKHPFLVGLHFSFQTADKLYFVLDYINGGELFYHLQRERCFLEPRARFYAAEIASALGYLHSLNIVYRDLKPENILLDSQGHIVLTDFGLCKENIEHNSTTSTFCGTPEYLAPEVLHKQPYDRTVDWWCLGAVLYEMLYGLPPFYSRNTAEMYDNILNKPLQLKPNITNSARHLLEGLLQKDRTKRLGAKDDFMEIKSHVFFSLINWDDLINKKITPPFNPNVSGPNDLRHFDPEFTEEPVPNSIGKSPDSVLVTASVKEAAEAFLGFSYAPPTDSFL

[12] = target: Serine/threonine-protein kinase SIK1 (Homo sapiens) (UniProt P57059); test: Selectivity interaction (KinomeScan (DiscoverX)) EUB0001079a SIK1; conditions: at 1 µM
Sequence of Serine/threonine-protein kinase SIK1 (Homo sapiens) (P57059 whole entry): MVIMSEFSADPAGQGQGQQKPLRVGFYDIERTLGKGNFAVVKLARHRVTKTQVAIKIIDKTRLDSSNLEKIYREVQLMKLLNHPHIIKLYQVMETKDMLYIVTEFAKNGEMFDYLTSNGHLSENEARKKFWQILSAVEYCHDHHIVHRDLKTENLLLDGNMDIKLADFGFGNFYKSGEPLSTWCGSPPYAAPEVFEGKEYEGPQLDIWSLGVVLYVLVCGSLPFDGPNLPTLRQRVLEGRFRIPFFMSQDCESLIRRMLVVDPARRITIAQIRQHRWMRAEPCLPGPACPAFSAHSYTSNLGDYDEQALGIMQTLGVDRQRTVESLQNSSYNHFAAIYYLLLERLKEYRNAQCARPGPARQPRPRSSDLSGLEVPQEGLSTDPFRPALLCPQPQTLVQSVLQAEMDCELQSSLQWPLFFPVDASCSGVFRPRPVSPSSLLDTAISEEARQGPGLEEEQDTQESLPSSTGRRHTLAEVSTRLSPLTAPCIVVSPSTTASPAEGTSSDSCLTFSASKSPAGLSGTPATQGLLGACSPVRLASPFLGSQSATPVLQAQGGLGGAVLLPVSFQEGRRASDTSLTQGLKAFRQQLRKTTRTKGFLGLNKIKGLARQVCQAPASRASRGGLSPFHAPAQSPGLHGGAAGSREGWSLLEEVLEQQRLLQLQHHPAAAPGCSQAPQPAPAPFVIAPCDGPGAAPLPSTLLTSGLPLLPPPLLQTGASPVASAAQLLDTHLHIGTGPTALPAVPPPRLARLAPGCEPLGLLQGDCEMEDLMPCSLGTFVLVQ

[13] = target: Calcium/calmodulin-dependent protein kinase type II subunit alpha (Homo sapiens, UniProt Q9UQM7); test: Selectivity interaction (KinomeScan (DiscoverX)) EUB0000045b CAMK2A
Sequence of Calcium/calmodulin-dependent protein kinase type II subunit alpha (Q9UQM7 whole entry): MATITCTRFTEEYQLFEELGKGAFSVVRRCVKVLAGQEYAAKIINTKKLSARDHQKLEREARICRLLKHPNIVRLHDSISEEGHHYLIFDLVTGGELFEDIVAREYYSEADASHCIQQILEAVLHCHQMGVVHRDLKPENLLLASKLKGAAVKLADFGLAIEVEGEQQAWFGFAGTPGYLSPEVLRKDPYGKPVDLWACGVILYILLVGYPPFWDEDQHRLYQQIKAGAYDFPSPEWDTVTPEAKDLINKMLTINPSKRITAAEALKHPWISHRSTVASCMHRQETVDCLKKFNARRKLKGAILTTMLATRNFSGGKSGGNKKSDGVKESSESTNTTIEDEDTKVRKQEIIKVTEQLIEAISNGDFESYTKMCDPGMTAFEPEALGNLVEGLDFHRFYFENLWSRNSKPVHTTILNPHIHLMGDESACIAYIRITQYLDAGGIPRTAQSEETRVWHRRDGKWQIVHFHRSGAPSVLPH

[14] = target: MAP/microtubule affinity-regulating kinase 3 (Homo sapiens) (UniProt P27448); test: Selectivity interaction (Kinase panel (DSF assay)) EUB0001559a MARK3
[15] = target: Interferon-induced, double-stranded RNA-activated protein kinase (Homo sapiens) (UniProt P19525); test: Selectivity interaction (Kinase panel (KiNativ target engagement assay in Jurkat cells)) EUB0001635a EIF2AK2; format: cell-based; conditions: Selectivity number of off-targets 0.0, Selectivity number of targets 233.0, Source Knowledge https://www.sciencedirect.com/science/article/pii/S2451945619300674?via%3Dihub, at 1 µM

% of inhibition (Focal adhesion kinase 1): 51%
SMILES: CCc1cc(Nc2nccc(-c3c(-c4ccc(OC)c(C(=O)Nc5c(F)cccc5F)c4)nc4ccccn34)n2)c(OC)cc1N1CCC(N2CCN(S(C)(=O)=O)CC2)CC1

% of inhibition [1]: -0.0527% | % of inhibition [2]: 12.3% | % of inhibition ([3]; at 0.01 µM): 19.6% | % of inhibition ([3]; at 0.04 µM): -3.8% | % of inhibition ([3]; at 0.2 µM): -4.9% | % of inhibition ([3]; at 1 µM): -9.2% | % of inhibition ([3]; at 5 µM): 21.8%
SMILES: CC[C@@H]1[C@H](F)C(=O)N[C@@H]1COc1nccc2cc(C(N)=O)c(OC)cc12 [ZIMLOVISERTIB]

IC50 (Melanocortin receptor 3): > 30 µM
SMILES: CCC(=O)N1CC[C@H](Nc2ncnc3c2CN(c2cnc(OC)c(C(F)(F)F)c2)CC3)C1 [LENIOLISIB]

% of inhibition [4]: -8.35% | % of inhibition [5]: -96.6% | % of inhibition [6]: -12%
SMILES: Cn1cc(-n2cnc3c(NCc4nc5cc(Cl)c(Cl)cc5[nH]4)nc(N4CCOCC4)nc32)cn1

% of control [7]: 8%
SMILES: CCN(CC)CCCCNc1ncc2cc(-c3cc(OC)cc(OC)c3)c(NC(=O)NC(C)(C)C)nc2n1

SMILES: COCC(=O)NC/C=C/c1ccc2ncnc(Nc3ccc(Oc4ccc(C)nc4)c(C)c3)c2c1 [CP-724714]
% of control [8]: 100%

SMILES: COc1cc(N(C)c2ccnc3ccc(C(F)(F)F)cc23)cc(OC)c1OC
% binding [9]: 87%

SMILES: Nc1cnc(N2CCc3cc(S(=O)(=O)Nc4c(F)cc(Cl)cc4F)cc(N4CCCC4=O)c32)nc1 [TP-020n]
% of control [10]: 100% | % of control [11]: 100% | % of control [12]: 100%

SMILES: C=CC(=O)Nc1cc(-n2c(=O)ccc3cnc4ccc(-c5ccc(NS(C)(=O)=O)cc5)cc4c32)ccc1C
% of control ([13]; at 1 µM): 98% | % of control ([13]; at 10 µM): 69%

dTM [14]: 0.7 K
SMILES: CN(C(=O)c1cnn2cccnc12)c1cc2c(cc1N1CCOCC1)C(=O)N(C[C@@H](F)C(C)(C)O)C2

SMILES: C=CC(=O)Nc1ccc(C(=O)Nc2[nH]nc3c2CN(C(=O)N[C@H](CN(C)C)c2ccccc2)C3(C)C)cc1
% of engagement [15]: -5.3%
